Measured values as given in patent US20060147922A1, “Novel diagnostic and therapeutic methods and reagents therefor” (priority 2002, published 2006).
“Also recorded” adds a separate entry of the source. Where no end group is shown, it is not given here. [ ]: non-standard residue; d: D form. pT = C[C@@H](OP(=O)(O)O)[C@H](N)C(=O)O

Key:
PR(CDE) = molecular target: T1, PR(CDE) (Homo sapiens, UniProt P06401); assay: GST-PR(CDE) pull-down of in vitro translated EDDF1 or SRC-1; assay type: binding; conditions: in vitro assays (data not shown)
T1 construct: PR(CDE) (aa 456-933) regions into pGEX4T2 for GST fusion protein expression; made in house; host or cells: GST fusion from E. coli BL21; EDDF1 / SRC-1 by coupled in vitro transcription/translation (TNT Quick, Promega)
T1 sequence (P06401 456-933): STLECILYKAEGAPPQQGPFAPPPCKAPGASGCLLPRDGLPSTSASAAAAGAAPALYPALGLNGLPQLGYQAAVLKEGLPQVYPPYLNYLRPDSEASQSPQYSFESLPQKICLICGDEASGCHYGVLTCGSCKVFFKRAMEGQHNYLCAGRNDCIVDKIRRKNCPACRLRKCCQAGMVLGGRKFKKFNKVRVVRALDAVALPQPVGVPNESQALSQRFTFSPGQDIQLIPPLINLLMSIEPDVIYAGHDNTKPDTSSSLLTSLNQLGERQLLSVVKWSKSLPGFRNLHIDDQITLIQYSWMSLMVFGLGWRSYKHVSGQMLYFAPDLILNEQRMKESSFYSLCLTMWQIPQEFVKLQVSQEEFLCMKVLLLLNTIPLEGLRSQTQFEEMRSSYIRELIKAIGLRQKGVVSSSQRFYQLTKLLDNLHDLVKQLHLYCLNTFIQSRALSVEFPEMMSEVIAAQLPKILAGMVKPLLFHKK

PR B = molecular target: T2, PR B (Homo sapiens, UniProt P06401); assay: Nuclear receptor transactivation assay (MMTV-luciferase reporter); assay type: cell-based; conditions: HEK 293 cells, 24 h
T2 sequence (P06401 1-933): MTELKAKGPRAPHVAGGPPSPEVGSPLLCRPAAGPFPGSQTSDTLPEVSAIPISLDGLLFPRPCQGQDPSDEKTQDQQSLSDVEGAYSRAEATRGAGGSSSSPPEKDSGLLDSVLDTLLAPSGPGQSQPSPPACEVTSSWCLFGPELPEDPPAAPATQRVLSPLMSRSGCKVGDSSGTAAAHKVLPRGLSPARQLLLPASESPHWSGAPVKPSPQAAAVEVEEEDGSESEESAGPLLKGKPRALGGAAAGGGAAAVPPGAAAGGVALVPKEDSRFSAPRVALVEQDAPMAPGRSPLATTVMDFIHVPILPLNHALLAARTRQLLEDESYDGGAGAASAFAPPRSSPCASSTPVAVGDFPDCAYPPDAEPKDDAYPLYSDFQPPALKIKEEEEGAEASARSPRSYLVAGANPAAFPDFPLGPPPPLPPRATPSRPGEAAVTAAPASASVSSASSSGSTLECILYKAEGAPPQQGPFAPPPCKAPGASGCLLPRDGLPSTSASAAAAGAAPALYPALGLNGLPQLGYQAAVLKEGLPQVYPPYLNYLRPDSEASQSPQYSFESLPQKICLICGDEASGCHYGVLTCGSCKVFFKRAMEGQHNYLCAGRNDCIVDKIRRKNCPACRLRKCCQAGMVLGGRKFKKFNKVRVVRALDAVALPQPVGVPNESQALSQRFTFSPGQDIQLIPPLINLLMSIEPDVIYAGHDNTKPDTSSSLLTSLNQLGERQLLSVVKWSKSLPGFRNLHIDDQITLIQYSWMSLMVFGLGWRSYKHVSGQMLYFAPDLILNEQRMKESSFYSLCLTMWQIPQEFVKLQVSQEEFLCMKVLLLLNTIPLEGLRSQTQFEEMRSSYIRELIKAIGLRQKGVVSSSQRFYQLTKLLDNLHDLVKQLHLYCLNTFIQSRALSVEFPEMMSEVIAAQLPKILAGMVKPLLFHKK
Description: (D) Effect of EDD on response to the synthetic progestin ORG2058. HEK 293 cells were transfected for reporter assay along with a transfection control plasmid (pRL-TK). Cells were harvested for luciferase assay following 24 h treatment with increasing concentrations of ORG2058.
HEK 293 or COS7 cells were plated in 6-well plates (2×10^5 cells/well) and the medium changed to 2% charcoal-stripped FCS the following day. Transfection was carried out using 3-4 μl Fugene 6 Reagent (Roche) with 1-2 μg DNA comprised of 90 ng receptor expression vector, 450 ng luciferase reporter vector and 1.2 μg EDD, EDDM or SRC-1 cDNAs in either pRcCMV or pSG5, or empty vector, and 200 ng GFP expression vector pGFP20. […] In some experiments cell number was monitored using the CellTiter96® Proliferation Assay (Promega Corp., Madison, USA). Cells in 6-well plates were analysed for GFP expression by fluorescence microscopy to determine transfection efficiency and also used for preparation of protein lysates so that protein expression levels of various constructs could be compared. […] In some experiments pRSV-β-gal or pRL-TK (Promega Corp., Madison, USA) vectors were transfected in place of pGFP20 and transfection efficiency monitored by assaying for β-galactosidase or Renilla luciferase activity respectively.

BRCA2-chk2 interaction = assay: chk2 immunoprecipitation, western blot for BRCA2, from MCF-7 nuclear extracts after DNA damaging agents; assay type: cell-based, human; conditions: phleomycin or hydroxyurea
Text: (§1) (B) Interactions between EDD, BRCA2 and chk2 are modified in response to DNA damaging agents. Nuclear extracts from MCF-7 cells that had been cultured in the presence of the radiomimetic phleomycin or the UV mimic hydroxyurea (HU), or from control MCF-7 cells, were subjected to immunoprecipitation with polyclonal chk2 antibody (N17). Following precipitation of immune complexes and extensive washing, bound proteins were separated by SDS-PAGE and western blotted for EDD, BRCA2 or chk2.
(§2) MCF-7 cells were incubated in RPMI containing 0.5% foetal bovine serum for 18 h before addition of phleomycin (Cayla, France) at 100 μg/ml, hydroxyurea (Calbiochem, CA, USA) at 2 mM or PBS vehicle, for 6 h. Cells were harvested for total protein or nuclear protein extracts as described above.

EDD-chk2 interaction = assay: chk2 immunoprecipitation / GSTchk2-N pull-down of EDD from MCF-7 nuclear extracts after DNA damaging agents; assay type: cell-based, human; conditions: for amount of EDD associating with chk2: MCF-7 nuclear extracts, phleomycin 100 μg/ml or hydroxyurea 2 mM
Description: Nuclear extracts from MCF-7 cells that had been cultured in the presence of the radiomimetic phleomycin (100 μg per ml) or from control MCF-7 cells were immunoprecipitated with polyclonal CHK2 antibody (N17) or incubated with goat IgG as a negative control. Following precipitation of immune complexes and extensive washing, bound proteins were separated by SDS-PAGE and western blofted for EDD or CHK2.
(C) Nuclear extracts from MCF-7 cells that had been cultured in the presence of phleomycin (100 μg per ml) or from control MCF-7 cells were incubated with GSTCHK2-N or with GST alone bound to glutathione-Sepharose beads. Bound proteins were separated by SDS-PAGE and immunoblotted for EDD and GST.
as §1, §2

chk2 FHA domain = molecular target: T3, chk2 FHA domain (Homo sapiens, UniProt O96017); assay: GSTchk2-N pull-down of in vitro translated EDD in presence of FHA-binding phosphopeptide; conditions: pre-incubation of GSTchk2-N fusion protein with peptide
T3 construct: made in house; host or cells: GST fusion from E. coli BL21; EDDF5 by coupled in vitro transcription/translation (TNT Quick, Promega)
T3 sequence (O96017 1-225): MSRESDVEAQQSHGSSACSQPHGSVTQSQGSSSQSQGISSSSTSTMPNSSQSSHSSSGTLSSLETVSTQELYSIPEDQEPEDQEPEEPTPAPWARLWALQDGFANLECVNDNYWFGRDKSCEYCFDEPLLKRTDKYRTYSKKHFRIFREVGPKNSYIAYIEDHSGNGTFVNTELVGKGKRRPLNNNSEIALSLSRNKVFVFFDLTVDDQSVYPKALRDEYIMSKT
Description: (D) The phosphopeptide-binding interface of the chk2 FHA domain is required for EDD binding. In vitro translated ^35S-labelled EDD derivative EDDF5 (aa 889-2799) was incubated with GSTchk2-N or GSTchk2-N derivatives containing R117A or I157T substitutions, or with GST alone bound to glutathione-Sepharose beads. The incubations with GSTchk2-N or GSTchk2-N(I157T) were carried out in the presence or absence of an FHA-binding phosphopeptide at 0, 80 or 150 μM. Bound EDD was detected by SDS-PAGE and autoradiography.
GST-tagged fusion proteins were prepared from E. coli strain BL21 according to established protocols (Pharmacia Protocol Handbook). Soluble fusion proteins were bound to glutathione agarose and quantitated via Coomassie blue staining against protein standards. 35S-labelled EDD protein and mutants or SRC-1 were synthesised in a coupled in vitro transcription/translation system (TNT Quick, Promega) and 10-20 μl reaction mixture was diluted in 1% Triton X-100 lysis buffer (Callaghan et al, Oncogene 17, 3479-3491, 1998) and incubated with 5 μg of GST, GST-importin α5, GST-PR(CDE) or GST-CIB coupled to glutathione agarose beads at 4° C. for 2 h. Beads were collected by centrifugation, washed extensively in lysis buffer and resuspended in SDS-PAGE sample buffer. After boiling, bound protein was visualised following SDS-PAGE and autoradiography. […]

EDD-CIB interaction = assay: GST-CIB pull-down of EDD from MCF-7 nuclear extracts after DNA damaging agents; assay type: cell-based, human
Description: (D) Interaction of EDD and CIB in HEK 293 and MCF-7 cells. Left, HEK 293 cells overexpressing mutant EDD were transfected with a plasmid encoding Flag-tagged CIB or empty vector (vec). Extracts from these cells were subjected to immunoprecipitation using anti-FLAG Ab M2. Right, nuclear extracts prepared from MCF-7 cells following treatment with DNA damage agents phleomycin (Phleo) or hydroxyurea (HU) were incubated with either GST or GST-CIB fusion protein bound to glutathione-Sepharose beads. Bound proteins from both procedures were analysed by SDS-PAGE and western blotted for EDD and amounts bound are indicated as percentages relative to input.
For GST fusion protein pull-down of endogenous or recombinant EDD from cell lysates, 0.5 to 1 mg total protein was incubated with 5 μg GST or GST fusion protein bound to glutathione beads for 1-2 h at 4° C. Beads were washed extensively in 1% Triton X-100 lysis buffer and bound proteins resolved by SDS-PAGE and detected by immunoblotting with EDD antisera (Callaghan et al, Oncogene 17, 3479-3491, 1998). For immunoprecipitation, 10 μl importin α5 antisera (Peter Palese, Mount Sinai School of Medicine) was incubated with 0.5 to 1 mg cell lysate (4° C. for 1 h). Antibody conjugates were captured on protein A sepharose beads (4° C. for 1 h) and washed extensively in lysis buffer. […]

CCC1CC2C3CCC4=CC(=O)CCC4C3CCC2(C)C1C(=O)CO (centres unmarked) [ORG2058]
effect of PR ligand on interactions between PR(CDE) and SRC-1 or EDDF1 (PR(CDE)): not affected | ORG2058 concentration at which that maximal response was exceeded (PR B; with EDD overexpression): 100 pM | ORG2058 concentration giving maximal response (luciferase activity) (PR B; without EDD transfection): 10 nM

NC(=O)NO [hydroxyurea]
amount of BRCA2 associated with chk2 (BRCA2-chk2 interaction): considerably reduced | amount of EDD associating with chk2 (EDD-chk2 interaction): no effect on the association with EDD

RWFDT(P)YLIRR: phosphopeptide that binds strongly to the FHA domain (RWFD[pT]YLIRR)
peptide concentration that abolished binding between EDD and chk2-N (chk2 FHA domain): greater than 50 μM

phleomycin
amount of BRCA2 associated with chk2 (BRCA2-chk2 interaction): no effect on the amount of BRCA2 associated with chk2 | EDD protein levels (EDD-CIB interaction; MCF-7 cells after treatment): unchanged | association between EDD and CIB (EDD-CIB interaction; MCF-7 cells, phleomycin 100 μg/ml 6 h, vs untreated or hydroxyurea-treated cells): significantly less association between EDD and CIB; also recorded: decrease in the amount of associating EDD | mobility and levels of EDD protein (EDD-chk2 interaction; MCF-7 nuclear extracts after treatment): no change in either the mobility or levels of EDD protein | amount of EDD associating with chk2 (EDD-chk2 interaction): considerably reduced; also recorded: diminished; also recorded: Decreased association between EDD and CHK2
